Experimental data reported in patent publication US20250313572A1, “MACROCYCLIC MCL-1 INHIBITORS AND METHODS OF USE” (AbbVie Inc., priority 2017, published 2025).
Like-named read-outs stand apart in the source and are kept apart here.

What was measured:
GST-MCL-1 = GST-MCL-1 (Homo sapiens, UniProt Q07820); assay: TR-FRET MCL-1 binding assay (competition with probe F-Bak)
Summary of the method: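 Test compounds, 11 three-fold dilutions from 25 μM final, incubated 2 hours at room temperature with GST-MCL-1, F-Bak probe and Tb-anti-GST antibody. TR-FRET read at 340/35 nm excitation with 520/525 and 495/510 nm emission. Run without human serum and with 10% HS.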

[1] = tested on: AMO-1 human multiple myeloma tumor cell line; assay: AMO-1 cell viability assay (CellTiter-Glo, 24 hours); type: cell-based; settings: Homo sapiens, AMO1, 24 h, read-out: AMO-1 Viability IC50 (μM, 10% FBS), 10% FBS, 24 hours of compound treatment
[2] = tested on: NCI-H929 human multiple myeloma tumor cell line; assay: NCI-H929 cell viability assay (CellTiter-Glo, 24 hours); type: cell-based; settings: Homo sapiens, NCI-H929, 24 h, read-out: H929 Viability IC50 (μM, 10% FBS), 10% FBS, 24 hours of compound treatment
[3] = MCL-1 Binding Ki (nM, 10% HS), in the presence of 10% HS (human serum)
[4] = without HS, read-out: MCL-1 Binding Ki

Chain of GST-MCL-1 (Q07820 whole entry): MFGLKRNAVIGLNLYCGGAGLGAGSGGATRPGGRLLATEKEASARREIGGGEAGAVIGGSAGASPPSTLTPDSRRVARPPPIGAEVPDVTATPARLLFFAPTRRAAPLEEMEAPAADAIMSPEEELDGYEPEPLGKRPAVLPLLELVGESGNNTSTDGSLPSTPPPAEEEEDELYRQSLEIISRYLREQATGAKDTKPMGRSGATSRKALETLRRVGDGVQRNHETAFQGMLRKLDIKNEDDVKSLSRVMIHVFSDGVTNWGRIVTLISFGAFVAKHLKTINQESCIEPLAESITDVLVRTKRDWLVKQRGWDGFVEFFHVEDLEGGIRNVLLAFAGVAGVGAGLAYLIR

| SMILES | Ki (GST-MCL-1; [3]) | Ki (GST-MCL-1; [4]) | IC50 [1] | IC50 [2] |
| --- | --- | --- | --- | --- |
| Cc1c(Cl)c2c(Cl)c(C)c1-c1c(-c3ccc(F)cc3)sc3ncnc(c13)O[C@@H](C(=O)O)Cc1cc(ccc1OCc1ccnc(N3CC4(COC4)C3)n1)OC[C@@H](CN1CCN(C)CC1)O2 [Example 42, (7R,16R)-19,23-dichloro-1-(4-fluorophenyl)-20,22-dimethyl-16-[(4-methylpiperazin-1-yl)methyl]-10-{[2-(2-oxa-6-azaspiro[3.3]heptan-6-yl)pyrimidin-4-yl]methoxy}-7,8,15,16-tetrahydro-18,21-etheno-9,13-(metheno)-6,14,17-trioxa-2-thia-3,5-diazacyclononadeca[1,2,3-cd]indene-7-carboxylic Acid] | 0.747 nM | 0.085 nM | 0.0011 µM | 0.00314 µM |
| COCCOCCOCCOCCOC1(c2nccc(COc3ccc4cc3C[C@H](C(=O)O)Oc3ncnc5sc(-c6ccc(F)cc6)c(c35)-c3c(C)c(Cl)c(c(Cl)c3C)O[C@H](CN3CCN(C)CC3)CO4)n2)CCC1 [Example 64, (7R,16R)-19,23-dichloro-1-(4-fluorophenyl)-20,22-dimethyl-16-[(4-methylpiperazin-1-yl)methyl]-10-[(2-{1-[(2,5,8,11-tetraoxatridecan-13-yl)oxy]cyclobutyl}pyrimidin-4-yl)methoxy]-7,8,15,16-tetrahydro-18,21-etheno-9,13-(metheno)-6,14,17-trioxa-2-thia-3,5-diazacyclononadeca[1,2,3-cd]indene-7-carboxylic Acid] | 0.167 nM | 0.038 nM | 0.00163 µM | 0.00243 µM |
| Cc1c(Cl)c2c(Cl)c(C)c1-c1c(-c3ccc(F)cc3)sc3ncnc(c13)O[C@@H](C(=O)O)Cc1cc(ccc1OCc1ccnc(N3C[C@H](O)[C@@H](O)C3)n1)OC[C@@H](CN1CCN(C)CC1)O2 [Example 56, (7R,16R)-19,23-dichloro-10-({2-[(3S,4S)-3,4-dihydroxypyrrolidin-1-yl]pyrimidin-4-yl}methoxy)-1-(4-fluorophenyl)-20,22-dimethyl-16-[(4-methylpiperazin-1-yl)methyl]-7,8,15,16-tetrahydro-18,21-etheno-13,9-(metheno)-6,14,17-trioxa-2-thia-3,5-diazacyclononadeca[1,2,3-cd]indene-7-carboxylic Acid] | 1.18 nM | 0.157 nM | 0.0534 µM | 0.13 µM |
| Cc1c(Cl)c2c(Cl)c(C)c1-c1c(-c3ccc(F)cc3)sc3ncnc(c13)O[C@@H](C(=O)O)Cc1cc(ccc1OCc1ccnc(N3CCC(F)(COCCOCC4COCCO4)CC3)n1)OC[C@@H](CN1CCN(C)CC1)O2 (stereo partly drawn) [Example 91, (7R,16R)-19,23-dichloro-10-({2-[4-({2-[(1,4-dioxan-2-yl)methoxy]ethoxy}methyl)-4-fluoropiperidin-1-yl]pyrimidin-4-yl}methoxy)-1-(4-fluorophenyl)-20,22-dimethyl-16-[(4-methylpiperazin-1-yl)methyl]-7,8,15,16-tetrahydro-18,21-etheno-13,9-(metheno)-6,14,17-trioxa-2-thia-3,5-diazacyclononadeca[1,2,3-cd]indene-7-carboxylic Acid] | 2.1 nM | 0.231 nM | 0.00072 µM | 0.00192 µM |
| Cc1c(Cl)c2c(Cl)c(C)c1-c1c(-c3ccc(F)cc3)sc3ncnc(c13)O[C@@H](C(=O)O)Cc1cc(ccc1OCc1ccnc(-c3ccc(CN4CCOCC4)cc3)n1)OC[C@@H](CN1CCN(C)CC1)O2 [Example 148, (7R,16R)-19,23-dichloro-1-(4-fluorophenyl)-20,22-dimethyl-16-[(4-methylpiperazin-1-yl)methyl]-10-[(2-{4-[(morpholin-4-yl)methyl]phenyl}pyrimidin-4-yl)methoxy]-7,8,15,16-tetrahydro-18,21-etheno-13,9-(metheno)-6,14,17-trioxa-2-thia-3,5-diazacyclononadeca[1,2,3-cd]indene-7-carboxylic Acid] | 0.346 nM | 0.034 nM | 0.00018 µM | 0.000736 µM |
